Measured values published in patent US10940201B2, “Nucleic acid derivative having immunostimulatory activity” (Shionogi & Co., Ltd., priority 2015, dated 2021).

Legend:
[1] = Subcutaneous irritation test in a single dose; assay type: in vivo, rats; details: for Gross: Crust / Gross: White matter accumulation / Histopathological, Subcutaneous: Cyst-like structure / Histopathological, Subcutaneous tissue: Cyst-like structure / Gross: Dark red spots / Gross: Edema / Gross: Epidermis: Crust: number of the observed animals; for Histopathological, Dermis: Inflammatory cell infiltration / Histopathological, Subcutaneous: Granulomatous inflammation / Histopathological, Subcutaneous: Inflammatory cell infiltration / Histopathological, Subcutaneous: Edema / Histopathological, Muscle layer: Edema / Histopathological, Muscle layer: Inflammatory cell infiltration / Histopathological, Muscle layer: Necrosis / Histopathological, Subcutaneous tissue: Bleeding / Histopathological, Subcutaneous tissue: Edema / Histopathological, Subcutaneous tissue: Inflammatory cell infiltration / Histopathological, Subcutaneous tissue: Necrosis / Histopathological, Subcutaneous: Necrosis: total score of grades
Method: Subcutaneous irritation of a compound of the present invention was evaluated by gross examination and histopathological examination about the skin at necropsy one day, one and four week(s) after subcutaneous administration in a single dose.
The compound of the present invention was subcutaneously administered to the center of back between the shoulder blades of rats. At necropsy one day, one or four week(s) after administration (isoflurane anesthesia, euthanasia by bleeding), skin at the administration site was collected, grossly observed and fixed in 10% neutral buffered formalin solution. The fixed skin was cut out, embedded and put in a thin slice by the usual methods, and Hematoxylin-eosin (HE) stained sections were made. The pathological observers were observed the HE stained sections by an optical microscope, and recorded the histopathological findings. The changes in pathological findings were evaluated in four grades of Minimal; ±, Mild; +, Moderate; 2+ and Marked; 3+. When any grade was not appropriate for the finding, it was recorded as Positive.
SEQ-2, SEQ-49 or an adjuvant of the present invention was dissolved in phosphate buffered saline and administered at 4.71, 15.7 or 47.1 nmol/1 mL/site, respectively.

B16F10 cells = assay: Anti-tumor effect of TRP2 peptide vaccine using an adjuvant; assay type: in vivo, mouse
Method: After immunization by TRP2 peptide vaccine, B16F10 cells (ATTC) which is mouse melanoma expressing TRP2 protein was subcutaneously transplanted to evaluate anti-tumor effect. […] The major and minor axes of the engrafted tumor were measured every 2 to 3 days, and the tumor volume was calculated by the formula: (major axis×minor axis^2)/2 Calculation method for indicators of anti-tumor effect For the adjuvant comprising ODN1826 100·(average tumor volume of adjuvant group)/(average tumor volume of ODN1826 group) For the adjuvant comprising ODN2006 100·(average tumor volume of adjuvant group)/(average tumor volume of ODN2006 group)

[2] = four weeks after administration, 4.71 nmol/site
[3] = four weeks after administration, 15.7 nmol/site
[4] = four weeks after administration, 47.1 nmol/site
[5] = one day after administration, 4.71 nmol/site
[6] = one day after administration, 15.7 nmol/site
[7] = one day after administration, 47.1 nmol/site
[8] = one week after administration, 4.71 nmol/site
[9] = one week after administration, 15.7 nmol/site
[10] = one week after administration, 47.1 nmol/site

Substance: Amph1826 [SEQ-2]
- Number of deaths/imminent dissections [1, 2]: 0/0
- Gross: Crust [1, 2]: 0
- Gross: White matter accumulation [1, 2]: 0
- Histopathological, Subcutaneous: Cyst-like structure [1, 2]: 0
- Histopathological, Dermis: Inflammatory cell infiltration [1, 2]: 0
- Histopathological, Subcutaneous: Granulomatous inflammation [1, 2]: 4
- Histopathological, Subcutaneous: Inflammatory cell infiltration [1, 2]: 0
- Number of deaths/imminent dissections [1, 3]: 0/0
- Gross: Crust [1, 3]: 0
- Gross: White matter accumulation [1, 3]: 0
- Histopathological, Subcutaneous: Cyst-like structure [1, 3]: 0
- Histopathological, Dermis: Inflammatory cell infiltration [1, 3]: 4
- Histopathological, Subcutaneous: Edema [1, 3]: 0
- Histopathological, Subcutaneous: Granulomatous inflammation [1, 3]: 5
- Histopathological, Subcutaneous: Inflammatory cell infiltration [1, 3]: 0
- Number of deaths/imminent dissections [1, 4]: 0/0
- Gross: Crust [1, 4]: 0
- Gross: White matter accumulation [1, 4]: 0
- Histopathological, Subcutaneous: Cyst-like structure [1, 4]: 0
- Histopathological, Dermis: Inflammatory cell infiltration [1, 4]: 7
- Histopathological, Subcutaneous: Edema [1, 4]: 0
- Histopathological, Subcutaneous: Granulomatous inflammation [1, 4]: 7
- Histopathological, Subcutaneous: Inflammatory cell infiltration [1, 4]: 0
- Number of deaths/imminent dissections [1, 5]: 0/0
- Histopathological, Subcutaneous tissue: Cyst-like structure [1, 5]: 1
- Histopathological, Dermis: Inflammatory cell infiltration [1, 5]: 5
- Histopathological, Muscle layer: Edema [1, 5]: 1
- Histopathological, Muscle layer: Inflammatory cell infiltration [1, 5]: 4
- Histopathological, Muscle layer: Necrosis [1, 5]: 0
- Histopathological, Subcutaneous tissue: Bleeding [1, 5]: 0
- Histopathological, Subcutaneous tissue: Edema [1, 5]: 3
- Histopathological, Subcutaneous tissue: Inflammatory cell infiltration [1, 5]: 7
- Histopathological, Subcutaneous tissue: Necrosis [1, 5]: 1
- Number of deaths/imminent dissections [1, 6]: 0/0
- Histopathological, Subcutaneous tissue: Cyst-like structure [1, 6]: 2
- Histopathological, Dermis: Inflammatory cell infiltration [1, 6]: 9
- Histopathological, Muscle layer: Edema [1, 6]: 3
- Histopathological, Muscle layer: Inflammatory cell infiltration [1, 6]: 7
- Histopathological, Muscle layer: Necrosis [1, 6]: 0
- Histopathological, Subcutaneous tissue: Bleeding [1, 6]: 3
- Histopathological, Subcutaneous tissue: Edema [1, 6]: 5
- Histopathological, Subcutaneous tissue: Inflammatory cell infiltration [1, 6]: 6
- Histopathological, Subcutaneous tissue: Necrosis [1, 6]: 1
- Number of deaths/imminent dissections [1, 7]: 0/0
- Histopathological, Subcutaneous tissue: Cyst-like structure [1, 7]: 1
- Histopathological, Dermis: Inflammatory cell infiltration [1, 7]: 6
- Histopathological, Muscle layer: Edema [1, 7]: 4
- Histopathological, Muscle layer: Inflammatory cell infiltration [1, 7]: 6
- Histopathological, Muscle layer: Necrosis [1, 7]: 0
- Histopathological, Subcutaneous tissue: Bleeding [1, 7]: 3
- Histopathological, Subcutaneous tissue: Edema [1, 7]: 6
- Histopathological, Subcutaneous tissue: Inflammatory cell infiltration [1, 7]: 6
- Histopathological, Subcutaneous tissue: Necrosis [1, 7]: 1
- Number of deaths/imminent dissections [1, 8]: 0/0
- Gross: Dark red spots [1, 8]: 0
- Gross: Edema [1, 8]: 0
- Gross: Epidermis: Crust [1, 8]: 0
- Gross: White matter accumulation [1, 8]: 0
- Histopathological, Subcutaneous: Cyst-like structure [1, 8]: 1
- Histopathological, Dermis: Inflammatory cell infiltration [1, 8]: 4
- Histopathological, Muscle layer: Inflammatory cell infiltration [1, 8]: 0
- Histopathological, Subcutaneous: Edema [1, 8]: 3
- Histopathological, Subcutaneous: Granulomatous inflammation [1, 8]: 0
- Histopathological, Subcutaneous: Necrosis [1, 8]: 0
- Number of deaths/imminent dissections [1, 9]: 0/0
- Gross: Dark red spots [1, 9]: 0
- Gross: Edema [1, 9]: 1
- Gross: Epidermis: Crust [1, 9]: 0
- Gross: White matter accumulation [1, 9]: 0
- Histopathological, Subcutaneous: Cyst-like structure [1, 9]: 1
- Histopathological, Dermis: Inflammatory cell infiltration [1, 9]: 6
- Histopathological, Muscle layer: Inflammatory cell infiltration [1, 9]: 4
- Histopathological, Subcutaneous: Edema [1, 9]: 4
- Histopathological, Subcutaneous: Granulomatous inflammation [1, 9]: 0
- Histopathological, Subcutaneous: Inflammatory cell infiltration [1, 9]: 8
- Histopathological, Subcutaneous: Necrosis [1, 9]: 0
- Number of deaths/imminent dissections [1, 10]: 0/0
- Gross: Dark red spots [1, 10]: 0
- Gross: Edema [1, 10]: 1
- Gross: Epidermis: Crust [1, 10]: 0
- Gross: White matter accumulation [1, 10]: 0
- Histopathological, Subcutaneous: Cyst-like structure [1, 10]: 3
- Histopathological, Dermis: Inflammatory cell infiltration [1, 10]: 9
- Histopathological, Muscle layer: Inflammatory cell infiltration [1, 10]: 6
- Histopathological, Subcutaneous: Edema [1, 10]: 3
- Histopathological, Subcutaneous: Granulomatous inflammation [1, 10]: 0
- Histopathological, Subcutaneous: Inflammatory cell infiltration [1, 10]: 8
- Histopathological, Subcutaneous: Necrosis [1, 10]: 0
- subcutaneous irritation findings four weeks after administration ([1]; rats, single subcutaneous dose, four weeks): skin inflammation was not recovered, and granulomatous inflammation by continuous activation of monocyte/macrophage system was observed
- subcutaneous irritation findings one day after administration ([1]; rats, single subcutaneous dose, one day): inflammation cellular infiltration, edema and crust were observed
- subcutaneous irritation findings one week after administration ([1]; rats, single subcutaneous dose, one week): inflammation cellular infiltration, edema and crust were observed
- tumor inhibition rate compared to ODN1826 (B16F10 cells; Day 12 after transplantation, Result 4-B, FIG. 3): about 3.5%
- tumor inhibition rate compared to ODN1826 (B16F10 cells; Day 12 after transplantation, Result 6-B, FIG. 4): 64.3%
- tumor inhibition rate compared to ODN1826 (B16F10 cells; Day 14 after transplantation, Result 7-B, FIG. 5): about 72.6%
- Tumor inhibition rate (Day 14 after transplantation) (B16F10 cells; Table 37, 1.57 nmol/head, compared to ODN1826 (SEQ-1)): 72.64%
